The values below are quoted from earlier work in US4276288A, “Dehydrooligopeptides, their production and their medicinal use” (Troponwerke GmbH & Co., KG, priority 1976, dated 1981).

Read-outs that look alike come from different tables or passages of the source.

In the data set the test system is tumour cells.

In the case of `O=P1(N(CCCl)CCCl)NCCCO1` (centres unmarked) [cyclophosphamide], the tumour cells destroyed reads like this: (LD10 dosage) 99.999%; (one eighth of the LD10 dose) 90%.
